The subject of this assay is L1210 leukemia ip in BDF1 mice, survival T/C. The assay can be described thus: NCI In Vivo Anticancer Drug Screen. Data for tumor model L1210 Leukemia (intraperitoneal) in B6D2F1 (BDF1) mice. The note with it: endpoint: mean survival time, higher = longer survival. The gist of the method:
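Mice bearing the transplanted tumor received compound or vehicle. Survival of the treated group was divided by that of the vehicle-treated control group to give the ratio.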

Setting [1] is: dose: 100.0 mg/kg/injection, schedule: Q04DX003 (ip), vehicle: Klucel (hydroxypropylcellulose) (HPC).
Setting [2] is: dose: 200.0 mg/kg/injection, schedule: Q04DX003 (ip), vehicle: Klucel (hydroxypropylcellulose) (HPC).
Where [3] appears, read: dose: 400.0 mg/kg/injection, schedule: Q04DX003 (ip), vehicle: Klucel (hydroxypropylcellulose) (HPC).
Setting [4] is: dose: 100.0 mg/kg/injection, schedule: Q01DX001 (ip), vehicle: carboxymethylcellulose (CMC).
Where [5] appears, read: dose: 200.0 mg/kg/injection, schedule: Q01DX001 (ip), vehicle: carboxymethylcellulose (CMC).
[6] abbreviates: dose: 400.0 mg/kg/injection, schedule: Q01DX001 (ip), vehicle: carboxymethylcellulose (CMC).
Setting [7] is: dose: 50.0 mg/kg/injection, schedule: Q01DX009 (ip), vehicle: saline.
Where [8] appears, read: dose: 100.0 mg/kg/injection, schedule: Q04DX003 (ip), vehicle: saline.
Setting [9] is: dose: 200.0 mg/kg/injection, schedule: Q04DX003 (ip), vehicle: saline.
Setting [10] is: dose: 100.0 mg/kg/injection, schedule: Q01DX009 (ip), vehicle: Klucel (hydroxypropylcellulose) (HPC).

Several values for one entry are separate records, joined by “and”; a condition that tells them apart may be missing. Identical values can stand only once. Inconclusive results and toxic doses are left out.

Take `Cc1ccccc1C(Cc1ccc(N2C(N)=NC(N)=NC2(C)C)cc1)C(=O)Nc1ccc(S(=O)(=O)F)cc1` (centres undefined): the T/C runs as follows: under setting [1], 98 % of control; under setting [2], 96 % of control; under setting [3], 88 % of control.

In the case of `O=[N+]([O-])c1c(Cl)cc(Cl)c([N+](=O)[O-])c1-c1ccccc1`, the T/C was 96 % of control under setting [4], 96 % of control under setting [5] and 107 % of control under setting [6].

Turning to `COCC1OC(OC2OCC3OC4(OCC(O)(C(C)OC)C5OCOC54)OC3C2OC)C(OC)C(O)C1OC1OC(C)C(OC)C(OC2OC(C)C3OC4(CC(O)C(OC5CC(OC6CC(C)([N+](=O)[O-])C(OC)C(C)O6)C(OC(=O)c6c(C)c(Cl)c(O)c(Cl)c6OC)C(C)O5)C(C)O4)OC3(C)C2O)C1O` (centres undefined), the T/C is 106 % of control under setting [7]; 106 % of control (dose: 100.0 mg/kg/injection, schedule: Q01DX009 (ip), vehicle: saline); 96 % of control (dose: 200.0 mg/kg/injection, schedule: Q01DX009 (ip), vehicle: saline).

As to `O=C(CCCC(=O)N/N=C/c1ccc(-c2ccccc2)cc1)N/N=C\c1ccc(-c2ccccc2)cc1`, the T/C by setting is: (dose: 50.0 mg/kg/injection, schedule: Q01DX001 (ip), vehicle: saline) 96 % of control; (dose: 100.0 mg/kg/injection, schedule: Q01DX001 (ip), vehicle: saline) 98 % of control; (dose: 200.0 mg/kg/injection, schedule: Q01DX001 (ip), vehicle: saline) 96 % of control; (dose: 400.0 mg/kg/injection, schedule: Q01DX001 (ip), vehicle: saline) 96 % of control.

As to `O=C1CCCO1`, the T/C under setting [8] is 92 % of control; the T/C under setting [9] is 100 % of control; the T/C (dose: 400.0 mg/kg/injection, schedule: Q04DX003 (ip), vehicle: saline) is 94 % of control.

As to `CCCOc1cccc(C(=N)N)c1`, the T/C (dose: 75.0 mg/kg/injection, schedule: Q01DX001 (ip), vehicle: Klucel (hydroxypropylcellulose) (HPC)) is 97 % of control; the T/C (dose: 150.0 mg/kg/injection, schedule: Q01DX001 (ip), vehicle: Klucel (hydroxypropylcellulose) (HPC)) is 96 % of control; the T/C (dose: 300.0 mg/kg/injection, schedule: Q01DX001 (ip), vehicle: Klucel (hydroxypropylcellulose) (HPC)) is 96 % of control.

In the case of `CCOC(=O)Cc1c[nH]c2ccc(N(CCCl)CCCl)cc12`, the T/C (dose: 0.55 mg/kg/injection, schedule: Q01DX009 (ip), vehicle: carboxymethylcellulose (CMC)) was 121 % of control; the T/C (dose: 1.5 mg/kg/injection, schedule: Q01DX009 (ip), vehicle: carboxymethylcellulose (CMC)) is 151 % of control; the T/C (dose: 2.2 mg/kg/injection, schedule: Q01DX009 (ip), vehicle: other) is 152 % of control; the T/C (dose: 3.1 mg/kg/injection, schedule: Q01DX009 (ip), vehicle: carboxymethylcellulose (CMC)) was 160 % of control and 177 % of control; the T/C (dose: 3.4 mg/kg/injection, schedule: Q01DX009 (ip), vehicle: other) was 152 % of control; the T/C (dose: 4.8 mg/kg/injection, schedule: Q01DX009 (ip), vehicle: carboxymethylcellulose (CMC)) was 168 % of control. Also, the T/C was 169 % of control (dose: 5.0 mg/kg/injection, schedule: Q01DX009 (ip), vehicle: other); 157 % of control (dose: 7.0 mg/kg/injection, schedule: Q01DX009 (ip), vehicle: carboxymethylcellulose (CMC)); 176 % of control (dose: 7.0 mg/kg/injection, schedule: Q01DX009 (ip), vehicle: other); 120 % of control (dose: 7.3 mg/kg/injection, schedule: Q01DX001 (ip), vehicle: carboxymethylcellulose (CMC)); 176 % of control (dose: 7.3 mg/kg/injection, schedule: Q01DX009 (ip), vehicle: carboxymethylcellulose (CMC)); 124 % of control (dose: 11.0 mg/kg/injection, schedule: Q01DX001 (ip), vehicle: carboxymethylcellulose (CMC)). Besides, the T/C is, setting by setting: (dose: 11.0 mg/kg/injection, schedule: Q01DX009 (ip), vehicle: carboxymethylcellulose (CMC)) 168 % of control; (dose: 11.1 mg/kg/injection, schedule: Q01DX009 (ip), vehicle: carboxymethylcellulose (CMC)) 97 % of control; (dose: 16.6 mg/kg/injection, schedule: Q01DX001 (ip), vehicle: carboxymethylcellulose (CMC)) 121 % of control; (dose: 25.0 mg/kg/injection, schedule: Q01DX001 (ip), vehicle: carboxymethylcellulose (CMC)) 166 % of control and 225 % of control; (dose: 37.5 mg/kg/injection, schedule: Q01DX001 (ip), vehicle: carboxymethylcellulose (CMC)) 94 % of control.

In the case of `CC(C)(C)c1ccc2c(c1)CCCC2`, the T/C runs as follows: (dose: 50.0 mg/kg/injection, schedule: Q01DX009 (ip), vehicle: saline with Tween-80) 93 % of control; (dose: 100.0 mg/kg/injection, schedule: Q01DX009 (ip), vehicle: saline with Tween-80) 89 % of control; (dose: 200.0 mg/kg/injection, schedule: Q01DX009 (ip), vehicle: saline with Tween-80) 96 % of control.

For `COc1cc(NC(N)=O)cc(OC)c1OC`, the T/C (dose: 100.0 mg/kg/injection, schedule: Q01DX009 (ip), vehicle: saline sonified) was 101 % of control; the T/C under setting [1] was 99 % of control; the T/C (dose: 200.0 mg/kg/injection, schedule: Q01DX009 (ip), vehicle: saline sonified) is 95 % of control; the T/C under setting [2] is 94 % of control; the T/C (dose: 400.0 mg/kg/injection, schedule: Q01DX009 (ip), vehicle: saline sonified) is 101 % of control; the T/C under setting [3] is 99 % of control.

For the compound `S=C1NC(c2ccccc2)NC(c2ccccc2)S1` (centres undefined), the T/C runs as follows: (dose: 12.0 mg/kg/injection, schedule: Q01DX009 (ip), vehicle: saline) 93 % of control; (dose: 25.0 mg/kg/injection, schedule: Q01DX009 (ip), vehicle: saline) 90 % of control; under setting [7], 90 % of control.

On to `Nc1nc2ncsc2c(=O)[nH]1`, for which the T/C (dose: 100.0 mg/kg/injection, schedule: Q01DX001 (ip), vehicle: saline with Tween-80) is 89 % of control; the T/C (dose: 200.0 mg/kg/injection, schedule: Q01DX001 (ip), vehicle: saline with Tween-80) is 89 % of control; the T/C (dose: 400.0 mg/kg/injection, schedule: Q01DX001 (ip), vehicle: saline with Tween-80) was 102 % of control.

For the compound `O=C(N1CCCCC1)N1CCCCC1`, the T/C by setting is: (dose: 100.0 mg/kg/injection, schedule: Q04DX002 (ip), vehicle: other) 105 % of control; (dose: 200.0 mg/kg/injection, schedule: Q04DX002 (ip), vehicle: other) 91 % of control; (dose: 400.0 mg/kg/injection, schedule: Q04DX002 (ip), vehicle: other) 88 % of control.

As to `O=c1cc(-c2c(O)cc(O)cc2O)oc2cc(O)cc(O)c12`, the T/C by setting is: under setting [4], 94 % of control; under setting [5], 94 % of control; under setting [6], 92 % of control.

For the compound `CCOc1ccc(N=Cc2cc(Br)ccc2O)cc1`, the T/C runs as follows: (dose: 100.0 mg/kg/injection, schedule: Q04DX002 (ip), vehicle: saline with Tween-80) 96 % of control; (dose: 200.0 mg/kg/injection, schedule: Q04DX002 (ip), vehicle: saline with Tween-80) 100 % of control; (dose: 400.0 mg/kg/injection, schedule: Q04DX002 (ip), vehicle: saline with Tween-80) 100 % of control.

As for `CN(C)/N=C\c1cccnc1`, the T/C runs as follows: under setting [8], 112 % of control; under setting [9], 86 % of control.

As for `c1ccc(NCc2csc3ccccc23)cc1`, the T/C under setting [4] was 98 % of control, the T/C under setting [5] was 88 % of control and the T/C under setting [6] was 98 % of control.

Turning to `O=C(Nc1ccc(F)cc1)Nc1ccc(I)cc1`, the T/C under setting [10] was 100 % of control and 92 % of control; the T/C (dose: 200.0 mg/kg/injection, schedule: Q01DX009 (ip), vehicle: Klucel (hydroxypropylcellulose) (HPC)) is 100 % of control; the T/C (dose: 400.0 mg/kg/injection, schedule: Q01DX009 (ip), vehicle: Klucel (hydroxypropylcellulose) (HPC)) was 96 % of control and 90 % of control.

As for `O=C1C=CC(=O)N1c1ccccc1Cl` (tested in a mixture with another compound), the T/C is 107 % of control (dose: 100.0 mg/kg/injection, schedule: Q04DX003 (ip), vehicle: acetone); 100 % of control (dose: 200.0 mg/kg/injection, schedule: Q04DX003 (ip), vehicle: acetone); 96 % of control (dose: 400.0 mg/kg/injection, schedule: Q04DX003 (ip), vehicle: acetone).

As to `COc1ccc(NC(=O)Oc2ccc(C(C)=O)cc2)cc1`, the T/C is, setting by setting: (dose: 25.0 mg/kg/injection, schedule: Q01DX009 (ip), vehicle: Klucel (hydroxypropylcellulose) (HPC)) 100 % of control; (dose: 50.0 mg/kg/injection, schedule: Q01DX009 (ip), vehicle: Klucel (hydroxypropylcellulose) (HPC)) 94 % of control; under setting [10], 97 % of control and 91 % of control.

Values taken from PubChem BioAssay AID248 (DTP/NCI, 2004).
